Reference: article PMC6077758, “Gambogic Acid and Its Analogs Inhibit Gap Junctional Intercellular Communication” (Frontiers in Pharmacology, 2018)
Where “and” joins values, the source holds several entries; their conditions need not be identical. Identical values can stand only once.

Assays:
SLC26A4 = molecular target: T1, SLC26A4 (Homo sapiens, UniProt O43511); assay: SLC26A4 inhibition (Supplementary Figure 4); format: cell-based
T1 construct: expressed in transfected cells
T1 sequence (O43511 1-780): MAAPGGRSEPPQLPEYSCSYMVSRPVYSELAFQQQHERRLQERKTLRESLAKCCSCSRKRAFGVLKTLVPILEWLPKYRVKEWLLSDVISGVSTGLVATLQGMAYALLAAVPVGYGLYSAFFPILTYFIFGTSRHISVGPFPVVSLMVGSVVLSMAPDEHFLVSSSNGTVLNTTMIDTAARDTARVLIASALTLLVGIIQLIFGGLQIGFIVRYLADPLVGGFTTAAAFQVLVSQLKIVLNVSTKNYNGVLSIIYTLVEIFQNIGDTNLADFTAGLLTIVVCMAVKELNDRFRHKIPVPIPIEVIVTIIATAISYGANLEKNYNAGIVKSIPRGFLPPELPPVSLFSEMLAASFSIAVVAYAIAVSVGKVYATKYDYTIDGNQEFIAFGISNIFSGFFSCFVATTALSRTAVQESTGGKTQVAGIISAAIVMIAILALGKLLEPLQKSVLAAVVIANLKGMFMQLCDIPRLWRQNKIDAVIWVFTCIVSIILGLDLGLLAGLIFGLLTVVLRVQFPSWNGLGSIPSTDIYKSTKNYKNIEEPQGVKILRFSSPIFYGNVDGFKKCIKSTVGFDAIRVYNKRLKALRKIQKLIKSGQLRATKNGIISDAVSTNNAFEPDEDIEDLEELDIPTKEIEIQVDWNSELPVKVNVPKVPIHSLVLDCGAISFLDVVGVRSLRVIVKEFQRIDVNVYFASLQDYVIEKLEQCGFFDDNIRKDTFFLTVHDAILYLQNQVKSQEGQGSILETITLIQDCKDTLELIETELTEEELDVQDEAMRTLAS

[1] = test system: GJIC in LN215 glioma cells; assay: I-YFP GJIC assay in LN215 cells; format: cell-based, human; conditions: for Inhibition of GJIC (in words): treated 10 min before assay, LN215 glioma cells
Protocol: The I-YFP GJIC assay was conducted as previously reported ([Lee et al., 2015], [2016]). The scheme of the assay is as follows: donor cells express SLC26A4 as an iodide transporter to allow iodide to the influx and donate iodide to acceptor cells through GJs; the acceptor cells express YFP^QL as an iodide sensor, for which the fluorescence is rapidly and sensitively quenched by iodide transferred from donor cells. A 2:1 mixture of the donor (LN215-I) and acceptor (LN215-YFP) cells were plated on 96-well plates at a density of 20,000 cells/well and grown for 24 h. After the medium was removed, the cells were treated with 100 μL of C-solution (10 mM HEPES, pH 7.4, 140 mM NaCl, 10 mM glucose, 5 mM KCl, 1 mM MgCl2, 1 mM CaCl2) containing vehicle or chemicals, as indicated. A POLARstar microplate reader (BMG Labtech, Ortenberg, Germany) equipped with an automated injector was utilized in the kinetic mode to read the YFP fluorescence of a well every 0.4 s for 10 s. An equal volume of I-solution, with the same composition as C-solution, except for the substitution of NaCl with NaI, was injected into the well 1 s after each recording was started. The % YFP quenching and % GJIC activity were calculated from a previously reported formula ([Lee et al., 2016]).
FIGURE 2 Inhibition of GJIC by GA, D-GA, and T-GA. I-YFP GJIC assay (see Materials and Methods) was conducted using LN215-I and LN215-YFP cells. The vehicle, GA (A), D-GA (B), or T-GA (C) was diluted in C-solution and applied to cells at the concentrations indicated above for 10 min before the GJIC assay. The mean % of GJIC activity ± SD of three independent experiments is presented as bar graphs.

LN215 cells = assay: Measurement of DCFH oxidation (ROS); format: cell-based, human; conditions: D-GA 20 μM 10 min, H2O2 30 min
Protocol: looseness1 LN215 cells were grown to confluency on 96-well plates, washed three times with C-solution, and treated with 100 μL C-solution containing 10 μM 2′–7′-dichlorodihydrofluorescein diacetate (DCFH-DA, Sigma-Aldrich) for 1 h; subsequently, the DCF fluorescence was measured. Chemical treatment was conducted during the DCFH-DA loading period. The DCF fluorescence value, which reflects cellular oxidative stress, was measured using a POLARstar microplate reader using excitation and emission wavelengths of 495 and 520, respectively.
FIGURE 7 No ROS generation results from D-GA treatment in LN215 cells. LN215 cells were plated in 96-well plates and grown to full confluency. After washing with C-solution, the cells were loaded with 10 μM DCFH-DA diluted in C-solution for 1 h before fluorometry. H2O2 or D-GA was added after 30 min or 10 min before the measurement, respectively. The data are the mean ± SD (n = 3). ^∗p < 0.05 (Student’s t-test).

Cx43 [2] = molecular target: T2, Cx43 (Homo sapiens, UniProt P17302); assay: I-YFP GJIC assay, LN215-Cx43 cells; format: cell-based; conditions: 10 min treatment, best fit value ± standard error; read-out: IC50 for inhibition of Cx43-GJIC
T2 construct: expressed in transfected cells; host or cells: GJA1-null LN215 human glioma cells, lentiviral transduction (pLVX-CIBla-Cx43)
T2 sequence (P17302 2-382 limits assumed): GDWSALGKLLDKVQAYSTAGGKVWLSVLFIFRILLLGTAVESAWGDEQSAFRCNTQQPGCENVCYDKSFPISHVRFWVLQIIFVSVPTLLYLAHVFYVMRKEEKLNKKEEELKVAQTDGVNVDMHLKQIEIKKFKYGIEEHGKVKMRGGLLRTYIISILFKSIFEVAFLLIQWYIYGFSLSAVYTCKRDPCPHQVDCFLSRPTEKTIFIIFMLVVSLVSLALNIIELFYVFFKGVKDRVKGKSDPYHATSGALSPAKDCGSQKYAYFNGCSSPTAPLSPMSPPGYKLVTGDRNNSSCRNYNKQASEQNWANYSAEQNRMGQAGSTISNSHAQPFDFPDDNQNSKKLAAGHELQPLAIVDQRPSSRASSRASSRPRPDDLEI
Protocol: (§1) GJA1-null LN215 cells were plated on a 24-well plate at 30% confluency, cultivated for 24 h, and transduced with 200 μL of conditioned medium containing lentivirus mixed with an equal volume of fresh growth medium for 15 h. The growth medium was refreshed followed by incubation for a further 72 h before selection with 2 μg/mL puromycin for one week.
(§2) The I-YFP GJIC assay was conducted as previously reported ([Lee et al., 2015], [2016]). The scheme of the assay is as follows: donor cells express SLC26A4 as an iodide transporter to allow iodide to the influx and donate iodide to acceptor cells through GJs; the acceptor cells express YFP^QL as an iodide sensor, for which the fluorescence is rapidly and sensitively quenched by iodide transferred from donor cells. […] A POLARstar microplate reader (BMG Labtech, Ortenberg, Germany) equipped with an automated injector was utilized in the kinetic mode to read the YFP fluorescence of a well every 0.4 s for 10 s. […] The % YFP quenching and % GJIC activity were calculated from a previously reported formula ([Lee et al., 2016]). […]
(§3) FIGURE 10 IC50 values of D-GA and CBX inhibition of GJs composed of Cx43, Cx40, or Cx30. […] The percentage of GJIC inhibition was calculated and plotted against the log [compound] […] The IC50 values were calculated using GraphPad Prism 5.

Cx30 = molecular target: T3, Cx30 (Homo sapiens, UniProt O95452); assay: I-YFP GJIC assay, LN215-Cx30 cells; format: cell-based; conditions: 10 min treatment, best fit value ± standard error; read-out: IC50 for inhibition of Cx30-GJIC
T3 construct: expressed in transfected cells; host or cells: GJA1-null LN215 human glioma cells, lentiviral transduction (pLVX-CIBla-Cx30)
T3 sequence (O95452 whole entry): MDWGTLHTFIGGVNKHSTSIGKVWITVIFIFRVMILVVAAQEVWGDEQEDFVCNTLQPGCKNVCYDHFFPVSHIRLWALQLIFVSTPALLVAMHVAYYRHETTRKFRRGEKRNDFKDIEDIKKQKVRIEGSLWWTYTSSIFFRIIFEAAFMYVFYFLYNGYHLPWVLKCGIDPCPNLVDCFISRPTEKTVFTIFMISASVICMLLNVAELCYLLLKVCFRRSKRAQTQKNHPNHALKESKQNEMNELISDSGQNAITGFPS
Protocol: as §1, §2, §3

Cx43 [3] = format: cell-based, human; conditions: LN215-Cx43 cells
Protocol: To assess the cellular level and S368 phosphorylation status of Cx43 on cell surfaces and in whole lysates, LN215-Cx43 cells on 100 mm culture plates were biotinylated using EZ-Link^TM Sulfo-NHS-SS-Biotin (ThermoFisher Scientific, Cat. No. 21331) according to the manufacturer’s instructions followed by lysis with PBS containing 1% Triton X-100, 1x protease inhibitor cocktail (Roche), and 1x phosphatase inhibitor cocktail (Pierce). Protein concentration was determined using a BCA assay. To collect surface proteins, 500 μg of protein was bound to 20 μL of NeutrAvidin^TM Agarose (Pierce) followed by elution with 2x Laemmli sample buffer. The surface samples and 20 μg of whole lysates were analyzed using immunoblotting as previously described ([Lee et al., 2016]). To confirm the knockout of GJA1, whole lysates were prepared without surface biotinylation. […] The protein band densities were measured using ImageJ software.
FIGURE 5 Effect of D-GA treatment on surface expression and S368 phosphorylation of Cx43. […] The images before cropping are also presented in Supplementary Figures 1A–E. The relative phospho-S368 Cx43 band intensity, divided by the total Cx43 band intensity, is reflective of Cx43 S368-phosphorylation and was calculated and presented as bar graphs (B). […]

Cx40 = molecular target: T4, Cx40 (Homo sapiens, UniProt P36382); assay: I-YFP GJIC assay, LN215-Cx40 cells; format: cell-based; conditions: 10 min treatment, best fit value ± standard error; read-out: IC50 for inhibition of Cx40-GJIC
T4 construct: expressed in transfected cells; host or cells: GJA1-null LN215 human glioma cells, lentiviral transduction (pLVX-EIBla-Cx40)
T4 sequence (P36382 whole entry): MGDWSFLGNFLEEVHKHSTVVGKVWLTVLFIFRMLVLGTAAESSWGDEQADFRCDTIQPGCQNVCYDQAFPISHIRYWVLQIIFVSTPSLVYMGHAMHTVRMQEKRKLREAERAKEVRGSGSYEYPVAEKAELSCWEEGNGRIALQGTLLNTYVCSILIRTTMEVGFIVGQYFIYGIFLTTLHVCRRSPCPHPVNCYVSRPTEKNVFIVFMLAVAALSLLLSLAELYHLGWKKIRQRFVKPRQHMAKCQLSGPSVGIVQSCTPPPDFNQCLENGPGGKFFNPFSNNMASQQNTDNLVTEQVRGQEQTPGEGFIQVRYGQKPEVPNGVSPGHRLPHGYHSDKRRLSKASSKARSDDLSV
Protocol: as §1, §2, §3

With `CC(C)=CCC[C@]1(C)C=Cc2c(O)c3c(c(CC=C(C)C)c2O1)O[C@]12C(=C[C@@H]4C[C@H]1C(C)(C)O[C@@]2(C/C=C(/C)C(=O)O)C4=O)C3=O` [GA, Gambogic acid] the “Inhibition of SLC26A4” value (SLC26A4) was “did not inhibit SLC26A4” and the “Inhibition of GJIC (in words)” value [1] was “inhibited by these compounds in a dose-dependent manner”.
For `CC(=O)OCOC(=O)CN(CC(=O)OCOC(C)=O)c1ccccc1OCCOc1ccccc1N(CC(=O)OCOC(C)=O)CC(=O)OCOC(C)=O` [BAPTA-AM, reference compound], the “Effect of pre-treatment on GJIC activity” value ([1]; 5 μM BAPTA-AM 30 min, control or 20 μM D-GA-treated LN215 cells) was “did not change the GJIC activity”.
`Cc1[nH]nc(-c2cc(S(=O)(=O)NC3CCCc4ccccc43)c(C)s2)c1C` (stereo not drawn) [PDSinh-C01, reference compound] was tested, and the “Inhibition of SLC26A4” value (SLC26A4) was “potently inhibited”.
`OO` [H2O2, reference compound] was tested, and the “DCF fluorescence (cellular ROS production)” value (LN215 cells) was “dose-dependent increase”.
`CC(C)=CCCC1(C)C=Cc2c(O)c3c(c(CC=C(C)C)c2O1)OC12C(=CC4CC1C(C)(C)OC2(C/C=C(/C)C(=O)O)C4O)C3=O` [D-GA, dihydrogambogic acid] was tested, and the “DCF fluorescence (cellular ROS production)” value (LN215 cells) was “did not increase DCF fluorescence”, the IC50 (Cx43 [2]) was 13.1 ± 1.1 µM and the IC50 (Cx30) was 81.1 ± 1.1 µM. The “S368 phosphorylation of surface Cx43 vs vehicle” value (Cx43 [3]; 10 min, 20 μM D-GA or 100 ng/mL PMA + 50 ng/mL EGF) was “did not increase S368 phosphorylation”, the “Cx43 level on cell surfaces” value (Cx43 [3]; 20 μM D-GA 10 min or 1 μg/mL BFA + 10 μg/mL CHX 6 h) was “increased threefold” and the IC50 (Cx40) was 5.1 µM. The “% GJIC activity” value ([1]; 20 μM for 10 min, LN215-I and LN215-YFP cells, mean ± SD) was 18.1% ± 15.7% and 17.6% ± 7.3%, the “% GJIC activity after washing” value ([1]; 20 μM for 10 min, washed, further 20 min incubation in absence of compound) was 91.4% ± 2.5% and the “Inhibition of GJIC (in words)” value [1] was “inhibited by these compounds in a dose-dependent manner”.
In the case of `CC1(C)[C@@H](OC(=O)CCC(=O)O)CC[C@]2(C)[C@H]3C(=O)C=C4[C@@H]5C[C@@](C)(C(=O)O)CC[C@]5(C)CC[C@@]4(C)[C@]3(C)CC[C@@H]12` [CBX, carbenoxolone, reference compound], the IC50 (Cx43 [2]) is reported as 5.6 ± 1.1 µM, the IC50 (Cx30) is reported as 748.2 ± 1.3 µM and the IC50 (Cx40) is reported as 105 µM.
`CC(C)=CCCC1(C)C=Cc2c(O)c3c(c(CC=C(C)C)c2O1)OC12C(CC4CC1C(C)(C)OC2(CC=C(C)C(=O)O)C4O)C3=O` (stereo not drawn) [T-GA, tetrahydrogambogic acid] was tested, and the “Inhibition of GJIC (in words)” value [1] was “inhibited by these compounds in a dose-dependent manner”.
